{
  "source": "patent US20050281888A1",
  "about": "“Nutritional supplement for infants” (priority 2004, published 2005)",
  "system": "blood lymphocytes",
  "assay": "Zinc dose response: lymphocyte response to mitogen PHA in supplemented infants",
  "format": "in vivo, infants (human), age 4-36 months",
  "conditions": "for Lymphocyte response to PHA (stimulation index): infants age 4-36 months",
  "method": "The basic concept underlying the assessment of the most optimum nutrient amounts for a given age group uses the principle of “dose-response graphs”. At least four groups of individuals were provided with various amounts of a given nutrient and their immune responses were measured using established and accepted techniques. The amount of a nutrient that gave the best response was considered the optimum amount. Dose response graphs were determined for all vitamins and trace elements considered essential for human health, particularly immunity.\nData for the dose response chart for zinc in a group of 4 to 36 month old infants is shown in FIG. 1, with the total amount of zinc taken is shown for each group. To determine the magnitude of immune response, an aliquot of blood was withdrawn from each subject in the study, blood lymphocytes were separated, washed and mixed with the mitogen phytohemagglutinin (PHA) in previously determined optimum amount. The optimum amount of PHA used in the experiments was predetermined by a set of dose response graphs using lymphocytes of a healthy donor and four different concentrations of PHA. After culture in a sterile environment for 72 hours, the cells were washed and mixed with radioactive thymidine. The same steps were undertaken in a control sample in which only the culture medium was used, not PHA. The cells were washed and radioactivity determined.\nDietary intake of zinc was calculated based on three 24-hour recalls and by the food frequency questionnaire methods.",
  "data": [
    {"compound": "[Zn]", "note": "[zinc]", "values": [
      {"measurement": "Immune response, conclusion in words", "setting": "3 mg zinc intake in addition to zinc from a balanced diet", "value": "best immune response"},
      {"measurement": "Lymphocyte response to PHA (stimulation index)", "setting": "supplemental zinc 3 mg", "value": 58},
      {"measurement": "Lymphocyte response to PHA (stimulation index)", "setting": "supplemental zinc 6 mg", "value": 41},
      {"measurement": "Lymphocyte response to PHA (stimulation index)", "setting": "supplemental zinc 9 mg", "value": 32}
    ]}
  ]
}
